{
  "source": "patent US8287923B2",
  "about": "“Compositions and methods for treating immune disorders” (priority 2005, dated 2012)",
  "system": "NHEK",
  "assay": "Affymetrix gene array analysis, inflammatory gene expression",
  "type": "cell-based, human",
  "details": "100 μM, vs time 0",
  "protocol": "The gene array experiment was performed at the Core Facility of Genomics of the Medical College of Georgia, according to the instructions of the manufacturer (Affymetrix, Santa Clara, Calif.). Briefly, NHEK and OSC2 cells treated with 100 μM EGCG for different time period were extracted for total RNA, the RNA was processed for probes and hybridized with a cDNA microarray (HuG133A, Affymetrix) which represents 22,283 human series. DNA chips were read with a Hewlett-Packard GeneArray Scanner at a resolution of […] and were analyzed with the GeneSpring software (Silicon Genetics, Redwood City, Calif.). Details of this analysis will be published elsewhere (Hsu et al., manuscript in preparation).",
  "data": [
    {"compound": "O=C(O[C@@H]1Cc2c(O)cc(O)cc2O[C@@H]1c1cc(O)c(O)c(O)c1)c1cc(O)c(O)c(O)c1", "note": "[EGCG, (−)-epigallocatechin-3-gallate]", "values": [
      {"measurement": "BMP2 (205290_s_at) expression", "setting": "0.5 h", "result": 0.32, "unit": "fold"},
      {"measurement": "IFNGR1 (202727_s_at) expression", "setting": "0.5 h", "result": 0.79, "unit": "fold"},
      {"measurement": "IL1A (210118_s_at) expression", "setting": "0.5 h", "result": 0.66, "unit": "fold"},
      {"measurement": "IL1B (39402_at) expression", "setting": "0.5 h", "result": 0.29, "unit": "fold"},
      {"measurement": "IL1B (205067_at) expression", "setting": "0.5 h", "result": 0.29, "unit": "fold"},
      {"measurement": "IL6R (205945_at) expression", "setting": "0.5 h", "result": 0.48, "unit": "fold"},
      {"measurement": "IL6ST (21100_s_at) expression", "setting": "0.5 h", "result": 0.34, "unit": "fold"},
      {"measurement": "IL8 (202859_x_at) expression", "setting": "0.5 h", "result": 6.02, "unit": "fold"},
      {"measurement": "IL10RB (209575_at) expression", "setting": "0.5 h", "result": 0.43, "unit": "fold"},
      {"measurement": "IL13RA2 (206172_at) expression", "setting": "0.5 h", "result": 0.33, "unit": "fold"},
      {"measurement": "IL18 (206295_at) expression", "setting": "0.5 h", "result": 0.33, "unit": "fold"},
      {"measurement": "TNFSF15 (221085_at) expression", "setting": "0.5 h", "result": 0.52, "unit": "fold"},
      {"measurement": "p38 (21156_x_at) expression", "setting": "0.5 h", "result": 2.32, "unit": "fold"},
      {"measurement": "p38 (202530_at) expression", "setting": "0.5 h", "result": 2.51, "unit": "fold"},
      {"measurement": "BMP2 (205290_s_at) expression", "setting": "2 h", "result": 0.96, "unit": "fold"},
      {"measurement": "IFNGR1 (202727_s_at) expression", "setting": "2 h", "result": 0.91, "unit": "fold"},
      {"measurement": "IL1A (210118_s_at) expression", "setting": "2 h", "result": 0.42, "unit": "fold"},
      {"measurement": "IL1B (39402_at) expression", "setting": "2 h", "result": 0.48, "unit": "fold"},
      {"measurement": "IL1B (205067_at) expression", "setting": "2 h", "result": 0.58, "unit": "fold"},
      {"measurement": "IL6R (205945_at) expression", "setting": "2 h", "result": 0.69, "unit": "fold"},
      {"measurement": "IL6ST (21100_s_at) expression", "setting": "2 h", "result": 0.28, "unit": "fold"},
      {"measurement": "IL8 (202859_x_at) expression", "setting": "2 h", "result": 9.55, "unit": "fold"},
      {"measurement": "IL10RB (209575_at) expression", "setting": "2 h", "result": 0.63, "unit": "fold"},
      {"measurement": "IL13RA2 (206172_at) expression", "setting": "2 h", "result": 0.74, "unit": "fold"},
      {"measurement": "IL18 (206295_at) expression", "setting": "2 h", "result": 0.65, "unit": "fold"},
      {"measurement": "TNFSF15 (221085_at) expression", "setting": "2 h", "result": 1.56, "unit": "fold"},
      {"measurement": "p38 (21156_x_at) expression", "setting": "2 h", "result": 1.46, "unit": "fold"},
      {"measurement": "p38 (202530_at) expression", "setting": "2 h", "result": 1.09, "unit": "fold"},
      {"measurement": "BMP2 (205290_s_at) expression", "setting": "6 h", "result": 0.72, "unit": "fold"},
      {"measurement": "IFNGR1 (202727_s_at) expression", "setting": "6 h", "result": 0.45, "unit": "fold"},
      {"measurement": "IL1A (210118_s_at) expression", "setting": "6 h", "result": 0.54, "unit": "fold"},
      {"measurement": "IL1B (39402_at) expression", "setting": "6 h", "result": 0.40, "unit": "fold"},
      {"measurement": "IL1B (205067_at) expression", "setting": "6 h", "result": 0.49, "unit": "fold"},
      {"measurement": "IL6R (205945_at) expression", "setting": "6 h", "result": 0.31, "unit": "fold"},
      {"measurement": "IL6ST (21100_s_at) expression", "setting": "6 h", "result": 0.99, "unit": "fold"},
      {"measurement": "IL8 (202859_x_at) expression", "setting": "6 h", "result": 9.99, "unit": "fold"},
      {"measurement": "IL10RB (209575_at) expression", "setting": "6 h", "result": 0.76, "unit": "fold"},
      {"measurement": "IL13RA2 (206172_at) expression", "setting": "6 h", "result": 0.81, "unit": "fold"},
      {"measurement": "IL18 (206295_at) expression", "setting": "6 h", "result": 0.70, "unit": "fold"},
      {"measurement": "TNFSF15 (221085_at) expression", "setting": "6 h", "result": 0.67, "unit": "fold"},
      {"measurement": "p38 (21156_x_at) expression", "setting": "6 h", "result": 1.62, "unit": "fold"},
      {"measurement": "p38 (202530_at) expression", "setting": "6 h", "result": 0.63, "unit": "fold"},
      {"measurement": "BMP2 (205290_s_at) expression", "setting": "24 h", "result": 0.44, "unit": "fold"},
      {"measurement": "IFNGR1 (202727_s_at) expression", "setting": "24 h", "result": 0.92, "unit": "fold"},
      {"measurement": "IL1A (210118_s_at) expression", "setting": "24 h", "result": 0.27, "unit": "fold"},
      {"measurement": "IL1B (39402_at) expression", "setting": "24 h", "result": 0.27, "unit": "fold"},
      {"measurement": "IL1B (205067_at) expression", "setting": "24 h", "result": 0.26, "unit": "fold"},
      {"measurement": "IL6R (205945_at) expression", "setting": "24 h", "result": 0.69, "unit": "fold"},
      {"measurement": "IL6ST (21100_s_at) expression", "setting": "24 h", "result": 0.61, "unit": "fold"},
      {"measurement": "IL8 (202859_x_at) expression", "setting": "24 h", "result": 9.93, "unit": "fold"},
      {"measurement": "IL10RB (209575_at) expression", "setting": "24 h", "result": 0.38, "unit": "fold"},
      {"measurement": "IL13RA2 (206172_at) expression", "setting": "24 h", "result": 0.55, "unit": "fold"},
      {"measurement": "IL18 (206295_at) expression", "setting": "24 h", "result": 0.65, "unit": "fold"},
      {"measurement": "TNFSF15 (221085_at) expression", "setting": "24 h", "result": 0.63, "unit": "fold"},
      {"measurement": "p38 (21156_x_at) expression", "setting": "24 h", "result": 2.51, "unit": "fold"},
      {"measurement": "p38 (202530_at) expression", "setting": "24 h", "result": 1.17, "unit": "fold"}
    ]}
  ]
}
